Common to all, as to experiment: NCI-60 cell line screen, 48 h
Test [1] has as its system DU-145.
The test system of test [2] is HCC 2998.
Test [3] relates to HCT-116.
The test system of test [4] is HCT-15.
Test [5] deals with Hs-578T.
For test [6], the system named is LOX IMVI.
The test system of test [7] is MDA-MB-231.
Test [8] relates to MDA-MB-435.
The test system of test [9] is MDA-N.
Test [10] concerns Malme-3M.
Test [11] has as its system OVCAR-4.
Test [12] has as its system RPMI-8226.
The test system of test [13] is SF-539.
In test [14] the test system is T47D.
For test [15], the system named is U-251.
Test [16] concerns UACC-257.
Test [17] relates to MOLT-4.
The subject of test [18] is SK-MEL-2.
In test [19] the test system is UO-31.

The results in this text go back to ChEMBL document CHEMBL1201862, “PubChem BioAssay data set” (2004).

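Cultured in 96-well plates, cells were exposed to test compound for 48 hours across five concentrations. GI50 = concentration required for 50% inhibition of growth.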 Activity calls are given as the source filed them. Cut-off read from the data, not from the text of the source: active = GI50 up to about 1.1 µM and inactive = higher.

Regarding `COc1ccc(-n2cnc3c2=NC(C)(C)NC=3C(N)=O)c(OC)c1`, the GI50 was > 100 µM (inactive) in test [1]; > 100 µM (inactive) in test [2]; > 100 µM (inactive) in test [3]; over 100 µM in [4]; > 100 µM (inactive) in test [5]; > 100 µM (inactive) in test [6]. Also, the GI50 in [7], in test [8], in test [9], in test [10], in [11] and in test [12] was > 100 µM (inactive) in each case. The GI50 in test [13], in test [14], in [15] and in test [16] was > 100 µM (inactive) each time.
Turning to `Nc1ccc2c(c1)NC(=O)[C@@H]1CCCN1C2=O`, the GI50 in test [1] is > 100 µM (inactive); in test [2], > 100 µM (inactive); in test [3], > 100 µM (inactive); in test [4] it was over 100 µM; in [5], > 100 µM (inactive); in test [6], > 100 µM (inactive). In addition, the GI50 in [7], in [8], in test [9], in test [17], in test [11] and in [12] was > 100 µM (inactive) in each case. Moreover, the GI50 in [13] is > 100 µM (inactive); in test [18], > 100 µM (inactive); in test [14], 96.6 µM (inactive); in test [15], > 100 µM (inactive); in test [16] it was > 100 µM (inactive); in [19] it was > 100 µM (inactive).
Turning to `Cc1ncc([N+](=O)[O-])n1CCN(C)C(=O)CCCn1ccnc1[N+](=O)[O-]`, the GI50 was > 100 µM (inactive) in test [1]; > 100 µM (inactive) in test [3]; over 100 µM in test [4]; > 100 µM (inactive) in test [5]; > 100 µM (inactive) in test [6]; > 100 µM (inactive) in test [7]. The GI50 in [8], in test [9], in test [17], in [10], in [11] and in [12] was > 100 µM (inactive) in each case. For the same molecule, the GI50 in [13], in [18], in test [14], in [15], in test [16] and in [19] was > 100 µM (inactive) throughout.
For `c1ccc(B2OCC(C3OB(c4ccccc4)OC4COB(c5ccccc5)OC43)O2)cc1` (stereo not drawn), the GI50 is > 100 µM (inactive) in test [1]; > 100 µM (inactive) in [3]; over 100 µM in test [4]; > 100 µM (inactive) in test [5]; > 100 µM (inactive) in [6]; > 100 µM (inactive) in test [7]. Besides, the GI50 in test [8], in [9], in test [17], in test [10], in test [11] and in [12] was > 100 µM (inactive) in each case. Besides, the GI50 in [13], in test [18], in [14], in [15], in test [16] and in test [19] was > 100 µM (inactive) each time.
`Cc1ccc(C2SCC(=O)N2c2ccc(-c3ccc(-n4c(-c5ccccc5)nc5ccccc5c4=O)cc3)cc2)cc1` (stereo not drawn): the GI50 was > 100 µM (inactive) in [1]; > 100 µM (inactive) in test [2]; 62.5 µM in [4]; 55.5 µM (inactive) in test [5]; 54.1 µM (inactive) in test [6]; 92.9 µM (inactive) in test [7]. The GI50 is 88.3 µM (inactive) in [8]; 80 µM (inactive) in test [9]; 34.5 µM (inactive) in [17]; > 100 µM (inactive) in test [10]; 51.3 µM (inactive) in test [11]; > 100 µM (inactive) in [12]. For the same molecule, the GI50 in test [18] is > 100 µM (inactive); in test [14], 24.8 µM (inactive); in [15], 73.3 µM (inactive); in [16] it was > 100 µM (inactive); in test [19], 18.6 µM (inactive).
In the case of `O=C1OC([C@H](O)c2cccnc2)c2ccccc21` (stereo partly drawn), the GI50 was > 10 µM (inactive) in [1]; > 10 µM (inactive) in test [2]; > 10 µM (inactive) in test [3]; over 10 µM in test [4]; > 10 µM (inactive) in test [5]; > 10 µM (inactive) in test [6]. For the same molecule, the GI50 in [7], in [8], in test [9], in test [17], in test [11] and in [12] was > 10 µM (inactive) each time. Besides, the GI50 in [13], in test [18], in test [14], in test [15], in test [16] and in [19] was > 10 µM (inactive) throughout.
With `C/C(=N\NC(=O)/C(C#N)=C\c1ccc(N(CCC#N)CCC#N)cc1)c1ccccc1`, the GI50 in [1] was > 10 µM (inactive); in test [2] it was > 10 µM (inactive); in [3], > 10 µM (inactive); in test [4], over 10 µM; in test [5], > 10 µM (inactive); in [6] it was > 10 µM (inactive). The GI50 in test [7], in [8], in [9], in test [17], in test [10] and in [11] was > 10 µM (inactive) throughout. In addition, the GI50 in test [12], in test [13], in test [14], in test [16] and in test [19] was > 10 µM (inactive) in each case.
Consider `O=S(=O)(O)c1ccc(/N=N/c2ccc3c(S(=O)(=O)O)cccc3c2O)c2ccccc12`, for which the GI50 in test [1] is > 100 µM (inactive); in [3] it was > 100 µM (inactive); in test [4] it was over 100 µM; in [5], > 100 µM (inactive); in test [6] it was > 100 µM (inactive); in test [7], > 100 µM (inactive). The GI50 in test [8], in test [9], in [10], in test [11], in [12] and in [18] was > 100 µM (inactive) throughout. For the same molecule, the GI50 was > 100 µM (inactive) in [14], > 100 µM (inactive) in [15], > 100 µM (inactive) in test [16] and 39.3 µM (inactive) in [19].
